US20250281548A1, “ANTIMICROBIAL COMPOSITIONS COMPRISING EXTRACELLULAR VESICLES AND METHODS THEREOF” (Washington State University, priority 2024, published 2025)

Tests used:
[1] = tested on: planktonic Candida auris cells; assay: Growth of planktonic C. auris cells (OD600); assay type: cell-based; settings: one dose, PAO1 D-EVs 0.25 μg/μl, E. coli D-EVs 0.15 μg/μl, YPD broth
Description: (§1) FIGS. 16A-16H summarize the EV bacterial protocol adapted for a fungal pathogen, C. auris. […] Fungal cell growth was monitored by measuring the OD600 of the cell culture. […] FIG. 16D illustrates the overall cellular levels of ROS radicals (including ·O2^− and ·OH) of C. auris in YPD broth culture in response to bacterial D-EV treatments. After 24 hr. of growth, C. auris cell culture (OD600=0.5) was mixed with a Cellular ROS Assay Kit (ab186027) and further incubated for 1 hr. Then, one dose of D-EVs extracted from either PAO1 (0.25 μg/μl) or E. coli (0.15 μg/μl) was added, followed by immediate monitoring of changes in fluorescence intensity (n=4). […] H2O2 (20%) was used as a positive control to stimulate C. auris to produce ·OH species.
Candida auris (B11220, ATCC) frozen at −80° C. was activated in yeast peptone dextrose (YPD) broth overnight at 37° C. Cells were be maintained at 4° C. on YPD-agar plates. The in vitro C. auris biofilms were be prepared by first activating the cultures at 4° C. in YPD broth at 37° C., then transferring a volume of 2.5 μL (OD600˜0.5) onto sterile 13-mm polycarbonate membrane (WHA10417401, Sigma-Aldrich) on YPD-agar plates (FIG. 17). The plates were then incubated at 37° C. for 0 h, 24 h, 48 h, and 72 h, respectively, for the following experiments.

[2] = tested on: C. auris; assay: Cellular ROS assay in C. auris culture; assay type: cell-based, Candida auris; settings: PAO1 D-EVs 0.25 μg/μl, E. coli D-EVs 0.15 μg/μl; ertapenem, tetracycline 2 mg/mL
Description: as §1

[3] = tested on: P. aeruginosa PAO1 biofilms; assay: PAO1 colony biofilm growth, viable cell count (Log10 CFU/cm^2); assay type: cell-based; settings: for Effect of ferric ions alone on 96-h PAO1 biofilm growth (in words): 10, 25, 50 μM Fe^3+
Description: P. aeruginosa (PAO1) from a −80° C. freezer was streaked on tryptic soy agar (TSA, BD Difco™ Dehydrated Culture Media, DF0369-17-6) and incubated overnight at 37° C. The P. aeruginosa was maintained on TSA plates at 4° C. and an inoculum was prepared by transferring a touch from this plate into 10 mL of tryptic soy broth (BD Bacto™) and incubated overnight. Then, a volume of 100 μL (OD600=0.1) was used to seed 47-mm sterilized filter membranes (Membrane Solutions MCE Gridded Membrane Filter, Mixed Cellulose Esters Membrane Filter, Pore Size: 0.45 μm) on TSA petri dishes. The plates were incubated at either 37° C. or 33° C. At desired time points (0, 1, 2, 4, 8, 12, 16, 24, 32, 48, 72, 85, 96, and 120 h), the biofilm was suspended in 0.9% NaCl to prepare serial dilutions for colony forming unit (CFU) counting. The viable cell concentration (CFU/cm^2) was calculated according to the literature. All experiments were done under aseptic conditions. TSA and TSB were autoclaved at 121° C. and […] for 50 min/L.
To quantify the effects of G-EVs and D-EVs on the growth behavior of P. aeruginosa PAO1 biofilms, biofilms grown for 2 hr. (lag phase), 8 hr. (exponential phase), and 24 hr. (stationary phase) were tested. Briefly, an inoculum was prepared by transferring a touch from the P. aeruginosa PAO1-TSA plates into 10 ml of TSB and incubating the plates at 37° C. overnight. A volume of 2.5 μL (OD600˜0.5) was used to seed sterile 13-mm polycarbonate membranes (WHA10417401, Sigma-Aldrich) on TSA plates and incubated at 37° C. Biofilms grown for 2 hr. were treated with one dose of G-EVs (0.028 μg/μL) or D-EVs (0.33 μg/μL) and incubated at 37° C. for 24 hours. Biofilms grown for 8 hr. were treated with one dose of G-EVs (0.037 μg/μL) or D-EVs (0.33 μg/μL) and incubated at 37° C. for 24 hours. Three doses of D-EVs (0.33 μg/μL) were applied (one dose every 24 h) to biofilms grown for 24 h, and the plates were incubated at 37° C. Then viable cells were counted and reported as CFU/cm^2.
To test if the suppression of PAO1 biofilm growth is caused by D-EV-induced excessive iron uptake by D-EV recipient cells leading to the activation of bacterial cell death, the research team examined whether D-EV-induced excessive iron uptake could improve the poor efficacy of the D EVs against 96-h biofilms (FIG. 9D). […]
The viability of treated P. aeruginosa PAO1 biofilms was investigated and compared to control. P. aeruginosa PAO1 biofilms at 2 hr., 8 hr., 24 hr., 48 hr., and 96 hr. were individually treated with a one-dose of P. aeruginosa PAO1 D-EVs±iron (50 μM) and the biofilm inhibition was quantified in the term of log10 CFU·cm^−2.

SMILES: OO [H2O2 (30%), H2O2]
- C. auris growth (in words) [1]: effectively inhibited fungal growth

SMILES: C[C@@H](O)[C@H]1C(=O)N2C(C(=O)O)=C(S[C@@H]3CN[C@H](C(=O)Nc4cccc(C(=O)O)c4)C3)[C@H](C)[C@H]12 [ertapenem]
- ROS production in C. auris (in words) [2]: No change in ROS production

SMILES: [Fe+3] [ferric ions]
- Growth of PAO1 biofilms at 2-96 hr. after one dose (in words) ([3]; 2, 8, 24, 48, 96 hr. biofilms, one dose D-EVs ± iron 50 μM, 24 hr. exposure): increased
- Effect of ferric ions alone on 96-h PAO1 biofilm growth (in words) ([3]; 96-h biofilms): marginally promoted biofilm growth
- Effect of ferric ions alone on 96-h PAO1 biofilm growth (in words) ([3]; 96-h biofilms, listed as Ferric ions): very minimal effect
- Growth of 96-h PAO1 biofilm with ferric ions alone ([3]; 96-h biofilms, ferric ions alone (10-50 μM), PBS control ~8.2): 8.7 log10
